As usually defined, the GI50 is the concentration that inhibits growth by half. Read a high GI50 as lower sensitivity of the cells.

Among the data in patent US20260062422A1 (Halda Therapeutics OpCo, Inc., priority 2022, published 2026) are GI50 values, retold here.

Some results are limits rather than exact numbers.

In one experiment the test system is T47D cells. The experiment can be described thus: Cellular growth inhibition assay for T47D cells, CellTiter-Glo. In kind it is cell-based, human. The following applies: 72 hours treatment, CellTiter-Glo 2.0 cell viability. An outline of the steps:
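Growth inhibition as GI50, fitted with four parameters to CellTiter-Glo luminescence after 72 h of compound exposure (0.5% DMSO). Cells were T47D, grown in insulin-supplemented (0.2 units/mL) DMEM with 10% FBS and treated one day post-seeding.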

For a further experiment, the system named is VCaP cells. Briefly: Cellular growth inhibition assay for VCaP cells, CellTiter-Glo. Format: cell-based, human. The following applies: 72 hours treatment, CellTiter-Glo 2.0. An outline of the steps: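 GI50 values come from four-parameter curve fits of luminescence data normalized to a zero baseline. Compound, in medium with 0.5% DMSO, was added one day after plating and left for 72 h before CellTiter-Glo 2.0 addition.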
For orientation: ATP-based viability assays read luminescence as a measure of living cells.

The test system of experiment [1] is T-Rex 293 cell line SC3 cells having increased expression of androgen receptor protein due to exposure to doxycycline. The experiment can be described thus: Cellular growth inhibition, T-Rex 293 SC3 cells with doxycycline (androgen receptor induced), CellTiter-Glo. The following applies: T-Rex 293 SC3 cells with 10 ng/mL doxycycline (increased androgen receptor expression). In kind it is cell-based. An outline of the steps: (§1)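 SC3 is a T-Rex 293 clone stably transfected with wild-type androgen receptor in pcDNA4/TO, inducible by 10 ng/mL doxycycline. Cells were grown in phenol red-free DMEM with 10% charcoal-dextran FBS, with or without doxycycline, dosed 24 h after seeding (0.5% DMSO) for 72 h. Viability was read by CellTiter-Glo 2.0 luminescence and GI50 obtained from four-parameter fits.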

Experiment [2] has as its system T-Rex 293 cell line SC3 cells lacking increased expression of androgen receptor protein. The experiment can be described thus: Cellular growth inhibition, T-Rex 293 SC3 cells without doxycycline, CellTiter-Glo. In kind it is cell-based. The following applies: T-Rex 293 SC3 cells not exposed to doxycycline, CellTiter-Glo 2.0. In short, it runs like this:
as §1

`Cc1sc2c(c1C)C(c1ccc([C@H]3CC[C@@]4(C3)CN(c3ncc(C(=O)N[C@H]5C(C)(C)[C@H](Oc6ccc(C#N)c(Cl)c6)C5(C)C)cn3)CCO4)cc1)=N[C@@H](Cc1ncco1)c1nnc(C)n1-2` [Compound I-428]: the GI50 was greater than 3000 nM in the experiment on T47D cells (Homo sapiens, T47D, 72 h); greater than 3000 nM in the experiment on VCaP cells (Homo sapiens, VCaP, 72 h); less than 500 nM in experiment [1] (72 h); greater than 3000 nM in experiment [2] (72 h).

On to `Cc1sc2c(c1C)C(c1ccc(C3(C4CC5(CCN(c6ncc(C(=O)N[C@H]7C(C)(C)[C@H](Oc8ccc(C#N)c(Cl)c8)C7(C)C)cn6)CC5)C4)CC3)cc1)=N[C@@H](Cc1ncco1)c1nnc(C)n1-2` [Compound I-525], for which the GI50 is less than 500 nM in the experiment with T47D cells (Homo sapiens, T47D, 72 h); less than 500 nM with VCaP cells (Homo sapiens, VCaP, 72 h); less than 500 nM in experiment [1] (72 h); greater than 3000 nM in experiment [2] (72 h).

For `Cc1sc2c(c1C)C(c1ccc(CCCN(C)C(=O)c3ncc(C(=O)N[C@H]4C(C)(C)[C@H](Oc5ccc(C#N)c(Cl)c5)C4(C)C)cn3)cc1)=N[C@@H](Cc1ncco1)c1nnc(C)n1-2` [Compound I-362], the GI50 was 500 to 1500 nM in the experiment on T47D cells (Homo sapiens, T47D, 72 h); less than 500 nM with VCaP cells (Homo sapiens, VCaP, 72 h); less than 500 nM in experiment [1] (72 h); greater than 3000 nM in experiment [2] (72 h).

On to `Cc1sc2c(c1C)C(c1ccc([C@H]3C[C@H](C[C@@H]4CCCN(c5ncc(C(=O)N[C@H]6C(C)(C)[C@H](Oc7ccc(C#N)c(Cl)c7)C6(C)C)cn5)C4)C3)cc1)=N[C@@H](Cc1ncco1)c1nnc(C)n1-2` [Compound I-403], for which the GI50 with T47D cells is less than 500 nM; with VCaP cells, greater than 3000 nM; in experiment [1] (72 hours), less than 500 nM; in experiment [2] (72 hours) it was greater than 3000 nM.

For `Cc1sc2c(c1C)C(c1ccc(C(C)(C)N3CC4(CCCN(c5ncc(C(=O)N[C@H]6C(C)(C)[C@H](Oc7ccc(C#N)c(Cl)c7)C6(C)C)cn5)C4)C3)cc1)=N[C@@H](Cc1ncco1)c1nnc(C)n1-2` [Compound I-439], the GI50 in the experiment on T47D cells (Homo sapiens, T47D, 72 h) is greater than 3000 nM; with VCaP cells (Homo sapiens, VCaP, 72 h), greater than 3000 nM; in experiment [1] (72 h), less than 500 nM; in experiment [2] (72 h), greater than 3000 nM.

With `Cc1sc2c(c1C)C(c1ccc(N3CCC(CCc4cnc(C(=O)N[C@H]5C(C)(C)[C@H](Oc6ccc(C#N)c(Cl)c6)C5(C)C)cn4)CC3)cc1)=N[C@@H](Cc1ncco1)c1nnc(C)n1-2` [Compound I-478], the concentration for 50% growth inhibition (GI50) in the experiment with T47D cells (Homo sapiens, T47D, 72 h) was 500 to 1500 nM; in the experiment on VCaP cells (Homo sapiens, VCaP, 72 h) it was less than 500 nM; in experiment [1] (72 h), less than 500 nM; in experiment [2] (72 h) it was 500 to 1500 nM.

On to `Cc1sc2c(c1C)C(c1ccc(C#CCN3CCN(c4ncc(C(=O)N[C@H]5C(C)(C)[C@H](Oc6ccc(C#N)c(Cl)c6)C5(C)C)cn4)CC3)cc1)=N[C@@H](Cc1ncco1)c1nnc(C)n1-2` [Compound I-56], for which the GI50 is less than 500 nM with T47D cells (Homo sapiens, T47D, 72 h); less than 500 nM in the experiment with VCaP cells (Homo sapiens, VCaP, 72 h); less than 500 nM in experiment [1] (72 h); less than 500 nM in experiment [2] (72 h).

For `Cc1sc2c(c1C)C(c1ccc(C[C@H]3CCC4(CCCN(c5ncc(C(=O)N[C@H]6C(C)(C)[C@H](Oc7ccc(C#N)c(Cl)c7)C6(C)C)cn5)C4)C3)cc1)=N[C@@H](Cc1ncco1)c1nnc(C)n1-2` (stereo partly drawn) [Compound I-163], the GI50 with T47D cells (Homo sapiens, T47D, 72 h) is 1500 to 3000 nM; with VCaP cells (Homo sapiens, VCaP, 72 h) it was greater than 3000 nM; in experiment [1] (72 h), less than 500 nM; in experiment [2] (72 h) it was greater than 3000 nM.

Turning to `Cc1sc2c(c1C)C(c1ccc(N3CCC[C@H](C(=O)N4CCC[C@@H](c5ncc(C(=O)N[C@H]6C(C)(C)[C@H](Oc7ccc(C#N)c(Cl)c7)C6(C)C)cn5)C4)C3)cc1)=N[C@H](Cc1ncco1)c1nnc(C)n1-2` [Compound I-339], the GI50 with T47D cells (Homo sapiens, T47D, 72 h) was greater than 3000 nM; in the experiment with VCaP cells (Homo sapiens, VCaP, 72 h), greater than 3000 nM; in experiment [1] (72 h), greater than 3000 nM; in experiment [2] (72 h), greater than 3000 nM.

Turning to `Cc1sc2c(c1C)C(c1ccc(N3C4CCC3CN(c3ncc(C(=O)N[C@H]5C(C)(C)[C@H](Oc6ccc(C#N)c(Cl)c6)C5(C)C)cn3)C4)cc1)=N[C@@H](Cc1ncco1)c1nnc(C)n1-2` [Compound I-635], the GI50 was less than 500 nM in the experiment with T47D cells (Homo sapiens, T47D, 72 h); less than 500 nM in the experiment with VCaP cells (Homo sapiens, VCaP, 72 h); less than 500 nM in experiment [1] (72 hours); less than 500 nM in experiment [2] (72 hours).

As to `Cc1sc2c(c1C)C(c1ccc(-c3ccc(OC4CCN(c5ncc(C(=O)N[C@H]6C(C)(C)[C@H](Oc7ccc(C#N)c(Cl)c7)C6(C)C)cn5)CC4)s3)cc1)=N[C@@H](Cc1ncco1)c1nnc(C)n1-2` [Compound I-409], the GI50 with T47D cells (Homo sapiens, T47D, 72 h) was less than 500 nM; in the experiment with VCaP cells (Homo sapiens, VCaP, 72 h), greater than 3000 nM; in experiment [1] (72 h), less than 500 nM; in experiment [2] (72 h), greater than 3000 nM.

With `Cc1sc2c(c1C)C(c1ccc(CN(C)C(=O)NCc3ncc(C(=O)N[C@H]4C(C)(C)[C@H](Oc5ccc(C#N)c(Cl)c5)C4(C)C)cn3)cc1)=N[C@@H](Cc1ncco1)c1nnc(C)n1-2` [Compound I-361], the GI50 with T47D cells (Homo sapiens, T47D, 72 h) was 1500 to 3000 nM; in the experiment with VCaP cells (Homo sapiens, VCaP, 72 h), 1500 to 3000 nM; in experiment [1] (72 h) it was greater than 3000 nM; in experiment [2] (72 h), greater than 3000 nM.

`CC[C@@H]1N=C(c2ccc(N3CC(CC4CCN(c5ncc(C(=O)N[C@H]6C(C)(C)[C@H](Oc7ccc(C#N)c(Cl)c7)C6(C)C)cn5)CC4)C3)cc2)c2c(sc(C)c2C)-n2c(C)nnc21` [Compound I-593]: the GI50 in the experiment on T47D cells (Homo sapiens, T47D, 72 h) was less than 500 nM; in the experiment on VCaP cells (Homo sapiens, VCaP, 72 h) it was less than 500 nM; in experiment [1] (72 h), less than 500 nM; in experiment [2] (72 h) it was greater than 3000 nM.

`Cc1sc2c(c1C)C(c1ccc(C3CC(C4CCN(c5ncc(C(=O)N[C@H]6C(C)(C)[C@H](Oc7ccc(C#N)c(Cl)c7)C6(C)C)cn5)CC4)C3)cc1)=NC(C)c1nnc(C)n1-2` (stereo partly drawn) [Compound I-468]: the GI50 with T47D cells is less than 500 nM; in the experiment on VCaP cells, less than 500 nM; in experiment [1] (72 hours), less than 500 nM; in experiment [2] (72 hours) it was greater than 3000 nM.

Turning to `Cc1sc2c(c1C)C(c1ccc(CC(=O)N3CCN(c4ncc(C(=O)N[C@H]5C(C)(C)[C@H](Oc6ccc(C#N)c(Cl)c6)C5(C)C)cn4)CC3)cc1)=N[C@@H](Cc1ncco1)c1nnc(C)n1-2` [Compound I-363], the 50% growth inhibitory concentration (GI50) with T47D cells (Homo sapiens, T47D, 72 h) is 500 to 1500 nM; with VCaP cells (Homo sapiens, VCaP, 72 h), less than 500 nM; in experiment [1] (72 h), less than 500 nM; in experiment [2] (72 h), 500 to 1500 nM.

As to `CNc1ccc2c(n1)C(c1ccc(OC3CC4(CCCN(c5ncc(C(=O)N[C@H]6C(C)(C)[C@H](Oc7ccc(C#N)c(Cl)c7)C6(C)C)cn5)C4)C3)cc1)=NCc1onc(C)c1-2` [Compound I-231, N-[3-(3-chloro-4-cyano-phenoxy)-2,2,4,4-tetramethyl-cyclobutyl]-2-[2-[4-[3-methyl-12-(methylamino)-5-oxa-4,8,11-triazatricyclo [8.4.0.02,6]tetradeca-1(10),2(6),3,8,11,13-hexaen-9-yl]phenoxy]-6-azaspiro[3.5]nonan-6-yl]pyrimidine-5-carboxamide], the 50% growth inhibitory concentration (GI50) in the experiment with T47D cells (Homo sapiens, T47D, 72 h) is greater than 3000 nM; in the experiment with VCaP cells (Homo sapiens, VCaP, 72 h), greater than 3000 nM; in experiment [1] (72 h), less than 500 nM; in experiment [2] (72 h), greater than 3000 nM.

Take `Cc1sc2c(c1C)C(c1ccc(N3C[C@@H]4[C@H](C3)[C@H]4Nc3ncc(C(=O)N[C@H]4C(C)(C)[C@H](Oc5ccc(C#N)c(Cl)c5)C4(C)C)cn3)cc1)=N[C@@H](Cc1ncco1)c1nnc(C)n1-2` [Compound I-657]: the 50% growth inhibitory concentration (GI50) is less than 500 nM with T47D cells (Homo sapiens, T47D, 72 h); less than 500 nM in the experiment with VCaP cells (Homo sapiens, VCaP, 72 h); less than 500 nM in experiment [1] (72 h); less than 500 nM in experiment [2] (72 h).

As for `Cc1sc2c(c1C)C(c1ccc(C3CC(C4CCN(c5cnc(C(=O)N[C@H]6C(C)(C)[C@H](Oc7ccc(C#N)c(Cl)c7)C6(C)C)cn5)CC4)C3)cc1)=NC(C)c1nnc(C)n1-2` (stereo partly drawn) [Compound I-470], the GI50 is 500 to 1500 nM with T47D cells, less than 500 nM in the experiment with VCaP cells, less than 500 nM in experiment [1] (72 hours) and greater than 3000 nM in experiment [2] (72 hours).
